The data set in a line: recombinant barcode read abundance after kanamycin selection (control-corrected) (log10(CPM+1)); higher = more efficient recombination; sequences stand for … in AGTGCAGAGAAAATCGGCCAGTTTTCTCTGCCTGCAGTCCGCATGCCGT…AGATTTATGCAGCGGACTGCCTTTCTCCCAAAGTGATAAACCGGACAGTATCATGGACCGGTTTTCCCGGTAATCCGTATTTGCAAGGTTGGTTTCACT; site = the 11-nt target. Put shortly: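 In E. coli, a pooled library matched targets to IS621 bridge RNA target-binding loops and was introduced alongside a donor plasmid. Cells went onto chloramphenicol/ampicillin/kanamycin with 0.1 mM IPTG or onto chloramphenicol/ampicillin LB agar as control, in duplicate. Recombination efficiency, from recombinant-junction barcodes as counts per million, is averaged and control-corrected. It is reported as log10(CPM+1).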
With “ATCCATCCTTGGGTTCTAACCTGTTGCCT (site ATCCAGCCTAG)”, the “recombinant barcode read abundance (log10)” value came out at 0.0583. Next, “ATCCATCCTTGGGTTCTAACCTGTTGCCT (site ATCCATCCTAG)”: 0.969.

In the case of “ATCCCATCTTGGGTTCTAACCTGTTGCCT (site ATACCATCTAG)”, the “recombinant barcode read abundance (log10)” value was found to be 0.383. “ATCCCATCTTGGGTTCTAACCTGTTGCCT (site ATCCCATCTAG)”: the “recombinant barcode read abundance (log10)” value was 0.619. Next, “ATCCCATCTTGGGTTCTAACCTGTTGCCT (site ATGCCATCTAG)”: 0.0333. Next, “ATCCCATCTTGGGTTCTAACCTGTTGCCT (site ATTCCATCTAG)”: 0.0512; “ATCCCCTCTTGGGTTCTAACCTGTTGCCT (site ATCCCCTCTAG)”: 2.53; “ATCCCCTCTTGGGTTCTAACCTGTTGCCT (site ATCGCCTCTAG)”: 0.031.

For the sequence “ATCGAGTCTTGGGTTCTAACCTGTTGCCT (site AACGAGTCTAG)”, the “recombinant barcode read abundance (log10)” value came out at 0.139. For “ATCGAGTCTTGGGTTCTAACCTGTTGCCT (site ACCGAGTCTAG)”, the “recombinant barcode read abundance (log10)” value amounted to 1.11. Consider “ATCGAGTCTTGGGTTCTAACCTGTTGCCT (site AGCGAGTCTAG)”, for which the “recombinant barcode read abundance (log10)” value worked out at 0.734. For the sequence “ATCGAGTCTTGGGTTCTAACCTGTTGCCT (site ATCGAGTCTAG)”, the “recombinant barcode read abundance (log10)” value came to 1.56. Next, “ATCGATGCTTGGGTTCTAACCTGTTGCCT (site ATCGATGCTAG)”: 0.545; “ATCGATGCTTGGGTTCTAACCTGTTGCCT (site ATCTATTCTAG)”: 0.0828.

Consider “ATCGCCTCTTGGGTTCTAACCTGTTGCCT (site ATCCCCTCTAG)”, for which the “recombinant barcode read abundance (log10)” value was determined as 0.328.

As to “ATCGCCTCTTGGGTTCTAACCTGTTGCCT (site ATCGCCTCTAG)”, the “recombinant barcode read abundance (log10)” value was found to be 0.742. Next, “ATCGGAGCTTGGGTTCTAACCTGTTGCGG (site ATCGGAGCTCA)”: 0.135; “ATCGGAGCTTGGGTTCTAACCTGTTGCGG (site ATCGGAGCTCC)”: 1.7; “ATCGGAGCTTGGGTTCTAACCTGTTGCGG (site ATCGGAGCTCG)”: 0.424. Turning to “ATCGGAGCTTGGGTTCTAACCTGTTGCGG (site ATCGGAGCTCT)”, the “recombinant barcode read abundance (log10)” value was 0.592. Next, “ATCGTATCTTGGGTTCTAACCTGTTGCGC (site ATCGTATCTGC)”: 0.068; “ATCGTATCTTGGGTTCTAACCTGTTGCGC (site GGGCAGGCTAG)”: 0.832; “ATCTCAACTTGGGTTCTAACCTGTTGCCT (site ACCTTAACTAG)”: 0.0254. Next, “ATCTCAACTTGGGTTCTAACCTGTTGCCT (site ATCTCAACTAG)”: 0.118; “ATCTTACCTTGGGTTCTAACCTGTTGCCG (site ATCTTACCTCG)”: 0.448; “ATCTTACCTTGGGTTCTAACCTGTTGCCG (site GTCTTCCCTCG)”: 0.11. Next, “ATCTTATCTTGGGTTCTAACCTGTTGCCT (site ATCTTAACTAG)”: 0.0526; “ATCTTATCTTGGGTTCTAACCTGTTGCCT (site ATCTTACCTAG)”: 0.262. For the sequence “ATCTTATCTTGGGTTCTAACCTGTTGCCT (site ATCTTAGCTAG)”, the “recombinant barcode read abundance (log10)” value was determined as 0.0977.

On to “ATCTTATCTTGGGTTCTAACCTGTTGCCT (site ATCTTATCTAG)”, for which the “recombinant barcode read abundance (log10)” value was found to be 0.208. Next, “ATGAACCCTTGGGTTCTAACCTGTTGCGT (site ATGAACCCTAC)”: 1.88; “ATGAACCCTTGGGTTCTAACCTGTTGCGT (site TTGAACCCTAC)”: 0.659. Turning to “ATGAAGCCTTGGGTTCTAACCTGTTGCTT (site ATCAAGCCTAA)”, the “recombinant barcode read abundance (log10)” value amounted to 0.0285. Next, “ATGAAGCCTTGGGTTCTAACCTGTTGCTT (site ATGAAGCCTAA)”: 0.107; “ATGACTACTTGGGTTCTAACCTGTTGCTC (site ATGACTACTGA)”: 0.423; “ATGACTACTTGGGTTCTAACCTGTTGCTC (site ATGACTACTTA)”: 0.135.

Turning to “ATGAGGTCTTGGGTTCTAACCTGTTGCTC (site ATGAGCTCTTA)”, the “recombinant barcode read abundance (log10)” value was 0.194. Next, “ATGAGGTCTTGGGTTCTAACCTGTTGCTC (site ATGAGGTCTGA)”: 1.43.

As for “ATGATTACTTGGGTTCTAACCTGTTGCCT (site ATAGTTACTAG)”, the “recombinant barcode read abundance (log10)” value is 0.0836. Next, “ATGATTACTTGGGTTCTAACCTGTTGCCT (site ATGATTACTAG)”: 0.385. Take “ATGCAACCTTGGGTTCTAACCTGTTGCCT (site ATGCAAACTAG)”: the “recombinant barcode read abundance (log10)” value worked out at 0.216. Next, “ATGCAACCTTGGGTTCTAACCTGTTGCCT (site ATGCAACCTAG)”: 0.827. Next, “ATGCAACCTTGGGTTCTAACCTGTTGCCT (site ATGCAAGCTAG)”: 0.362; “ATGCAACCTTGGGTTCTAACCTGTTGCCT (site ATGCAATCTAG)”: 0.293; “ATGCACCCTTGGGTTCTAACCTGTTGCCT (site ATGCACCCTAG)”: 2.

For “ATGCACCCTTGGGTTCTAACCTGTTGCCT (site ATGCGCCCTAG)”, the “recombinant barcode read abundance (log10)” value worked out at 0.977.

As for “ATGCCGACTTGGGTTCTAACCTGTTGCCT (site ATGCCAACTAG)”, the “recombinant barcode read abundance (log10)” value came to 0.101. Next, “ATGCCGACTTGGGTTCTAACCTGTTGCCT (site ATGCCCACTAG)”: 0.0898; “ATGCCGACTTGGGTTCTAACCTGTTGCCT (site ATGCCGACTAG)”: 1.02; “ATGCCGACTTGGGTTCTAACCTGTTGCCT (site ATGCCTACTAG)”: 0.11. Next, “ATGCGAGCTTGGGTTCTAACCTGTTGCCG (site ATGCGAGCTCA)”: 0.177. Regarding “ATGCGAGCTTGGGTTCTAACCTGTTGCCG (site ATGCGAGCTCC)”, the “recombinant barcode read abundance (log10)” value is 0.358. Next, “ATGCGAGCTTGGGTTCTAACCTGTTGCCG (site ATGCGAGCTCG)”: 0.815; “ATGCGAGCTTGGGTTCTAACCTGTTGCCG (site ATGCGAGCTCT)”: 0.404; “ATGCGCCCTTGGGTTCTAACCTGTTGCCT (site ATGCACCCTAG)”: 0.43. On to “ATGCGCCCTTGGGTTCTAACCTGTTGCCT (site ATGCGCCCTAG)”, for which the “recombinant barcode read abundance (log10)” value worked out at 0.717. Next, “ATGCTACCTTGGGTTCTAACCTGTTGCGG (site ATGCTACCTCC)”: 1.2; “ATGCTACCTTGGGTTCTAACCTGTTGCGG (site CACGGGGCTAG)”: 0.0226. Next, “ATGGGAGCTTGGGTTCTAACCTGTTGCGA (site AGGGGAGCTCC)”: 0.627; “ATGGGAGCTTGGGTTCTAACCTGTTGCGA (site ATGGGAGCTTC)”: 1.14; “ATGGTGCCTTGGGTTCTAACCTGTTGCCT (site ATGGTGACTAG)”: 0.098. Next, “ATGGTGCCTTGGGTTCTAACCTGTTGCCT (site ATGGTGCCTAG)”: 2.65; “ATGGTGCCTTGGGTTCTAACCTGTTGCCT (site ATGGTGGCTAG)”: 0.417. Regarding “ATGGTGCCTTGGGTTCTAACCTGTTGCCT (site ATGGTGTCTAG)”, the “recombinant barcode read abundance (log10)” value was found to be 2.03. Next, “ATGTAGGCTTGGGTTCTAACCTGTTGCCT (site ATGTAGGCTAG)”: 0.137. Next, “ATGTAGGCTTGGGTTCTAACCTGTTGCCT (site ATGTTAGCTAG)”: 0.127. Next, “ATGTATTCTTGGGTTCTAACCTGTTGCCT (site AACTATTCTAG)”: 0.0758; “ATGTATTCTTGGGTTCTAACCTGTTGCCT (site ATGTATTCTAG)”: 0.828. As to “ATGTCGTCTTGGGTTCTAACCTGTTGCCT (site AAGTCGTCTAG)”, the “recombinant barcode read abundance (log10)” value was found to be 0.0812. For “ATGTCGTCTTGGGTTCTAACCTGTTGCCT (site ACGTCGTCTAG)”, the “recombinant barcode read abundance (log10)” value came out at 0.296. Next, “ATGTCGTCTTGGGTTCTAACCTGTTGCCT (site AGGTCGTCTAG)”: 0.141. With “ATGTCGTCTTGGGTTCTAACCTGTTGCCT (site ATGTCGTCTAG)”, the “recombinant barcode read abundance (log10)” value worked out at 1.13.

“ATGTCTCCTTGGGTTCTAACCTGTTGCCT (site ATGTCTCCTAG)”: the “recombinant barcode read abundance (log10)” value was found to be 1. Next, “ATGTCTCCTTGGGTTCTAACCTGTTGCCT (site CTGTCTCCTAG)”: 0.0833; “ATGTCTCCTTGGGTTCTAACCTGTTGCCT (site GTGTCTCCTAG)”: 0.0531. Turning to “ATGTCTCCTTGGGTTCTAACCTGTTGCCT (site TTGTCTCCTAG)”, the “recombinant barcode read abundance (log10)” value was 0.228. On to “ATTAATCCTTGGGTTCTAACCTGTTGCCT (site ATTAAATCTAG)”, for which the “recombinant barcode read abundance (log10)” value came out at 0.441.

(Values after the supplement of paper PMC11208160.)
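Further: IS621 recombinase and bridge RNA in Escherichia coli cells.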
